Assay results taken from patent US20190375778A1, “ADENOSINE DERIVATIVES FOR USE IN THE TREATMENT OF CANCER” (NuCana plc, priority 2016, published 2019).
Like-named read-outs stand apart in the source and are kept apart here.

What was measured:
FM3A = test: Cytotoxicity, FM3A; assay type: cell-based, murine; details: Mus musculus, read-out: absolute IC50, FM3A
Source text: (§1) Lovo: cell line derived from a metastatic site in a patient with colon cancer MCF7: human oestrogen sensitive mammary epithelial cell line PC3: human prostate cancer cell line A549: cancerous lung tissue derived cells L1210: lymphoblast cell line derived from a mouse with lymphocytic leukaemia FM3A: mammary carcinoma murine cells CEM: human T-lymphoblasts, derived from the blood of a patient with acute lymphoblastic leukaemia HeLa: epithelial cells from a patient with cervical adenocarcinoma

MCF7 = test: MTT cytotoxicity assay, MCF7; assay type: cell-based; details: Homo sapiens, 96 h compound exposure, read-out: absolute IC50, MCF7
Source text: as §1
Anti-tumour evaluation in MCF7, LoVo, A549 and PC3 cell lines was performed by MTT assay. Compounds were prepared as 0.1-100 mM stock solutions dissolved in DMSO and stored at −20° C. Cells were seeded into 96-well microtitre plates at a density of 5×10^3 cells per well and allowed 24 hours to adhere. Decimal compound dilutions were prepared in medium immediately prior to each assay (final concentration 0.1-100 μM). Experimental medium was DMEM+10% FCS (PC3 and Lovo) or RPMI+10% heat inactivated FCS (A549 and MCF7). Following 96 h compound exposure at 37° C., 5% CO2, MTT reagent (Sigma Aldrich) was added to each well (final concentration 0.5 mg/ml). Incubation at 37° C. for 4 h allowed reduction of MTT by viable cells to an insoluble formazan product. MTT was removed and formazan solubilised by addition of 10% Triton X-100 in PBS. Absorbance was read on a Tecan Sunrise spectrophotometer at 540 nm as a measure of cell viability; thus inhibition relative to control was determined (IC50).

[1] = Drug stability in human plasma with or without EHNA; assay type: in vitro ADME; details: for plasma concentration compared with the other compounds: human plasma, with or without EHNA
Description: 10 ml of human plasma sample (Sera laboratories, UK) was treated with 1 μM of EHNA. 1 ml from this was taken along with 1 μl of 20 µM concentration of each drug (8-Cl-A, compound A, compound B and compound D) which was added to new tubes and incubated for 2 hours at 37° C. with 5% CO2. After incubation, 100 μl of each sample was taken and 300 μl of 100% methanol was added and left on ice for 30 minutes. After 30 minutes, the mixture was centrifuged (14000 rpm, 4° C., 10 minutes), the supernatant was transferred to new tubes and evaporated under speed vac. Then the dried pellet was reconstituted in 100 μl of 10% Acetonitrile and transferred to LC-MS vials for injection in to the UPLC-MS/MS system.
The dose-response curves of cytotoxicity of the drugs was determined using non-linear regression analysis of percentage cell viability versus concentration and EC50 values were obtained. The intracellular assay was conducted in five repeats for each condition. Intracellular assay was determined using paired T test (two-tailed) analysis of 8-ChloroATP/ATP concentration and p values were obtained. Drug stability in human plasma was determined using two-way ANOVA analysis. For all the analysis, Prism Software program (GraphPad Software) was used.

KG1a cell line = test: Annexin V/propidium iodide cytotoxicity, KG1a unsorted; assay type: cell-based; details: for LD50: Homo sapiens, KG-1a, Annexin V/propidium iodide, 72 hrs; for cytotoxic potency compared in words: KG1a, versus 8-chloroadenosine or other isomers (FIG. 1, FIG. 7)
Description: A further comparative analysis of the toxicity of compounds in the KG1a cell line over an extended dose range was carried out, and the relative effect assessed of the compounds on the leukaemic stem cell compartment within the KG1a cell line, across the entire dose range. Thus, experimental tests were performed on certain compounds of the present invention to assess their ability to target cancer stem cells in a leukaemic cell line. The acute myeloid leukaemia (AML) cell line, KG1a, was employed to assess the relative effect of compounds on the stem cell compartment. The KG1a cell line was selected because it manifests a minor stem cell-like compartment with a distinct immunophenotype (Lin^−/CD34^+/CD38^−/CD123^+).
Cells of the KG1a cell line were maintained in RPMI medium (Invitrogen, Paisley, UK) supplemented with 100 units/ml penicillin, 100 μg/ml streptomycin and 20% foetal calf serum. Cells were subsequently aliquoted (10^5 cells/100 μl) into 96-well plates and were incubated at 37° C. in a humidified 5% carbon dioxide atmosphere for 72 hrs in the presence of nucleoside analogues and their respective nucleotide analogues (known as ProTides) at concentrations that were experimentally determined for each series of compounds. In addition, control cultures were carried out to which no drug was added. Cells were subsequently harvested by centrifugation and were analyzed by flow cytometry using the Annexin V assay.
Cultured cells were harvested by centrifugation and then resuspended in 195 μl of calcium-rich buffer. Subsequently, 5 μl of Annexin V (Caltag Medsystems, Botolph Claydon, UK) was added to the cell suspension and cells were incubated in the dark for 10 mins prior to washing. Cells were finally resuspended in 190 μl of calcium-rich buffer together with 10 μl of propidium iodide. Apoptosis was assessed by dual-colour immunofluorescent flow cytometry as described previously. Subsequently LD50 values (the dose required to kill 50% of the cells in a culture) were calculated for each nucleoside analogue and ProTide.
The data obtained in these experiments were evaluated using one way ANOVA. All data was confirmed as Gaussian or a Gaussian approximation using the omnibus K2 test. LD50 values were calculated from the non-linear regression and line of best-fit analysis of the sigmoidal dose-response curves. All statistical analyses were performed using Graphpad Prism 6.0 software (Graphpad Software Inc., San Diego, Calif.).

MDAMB231 = test: CellTiterGlo viability assay, MDAMB231; assay type: cell-based, Human; details: for IC50: Homo sapiens, read-out: IC50 MDAMB231
Description: In vitro viability assay were performed to assess the effects of compounds on cell viability in selected cell lines over ˜72 hrs using the CellTiterGlo (CTG, Promega-G7573) assay. The tests were performed in duplicates with treatment of compounds at 9 points, 3.16 folds titration in 96 well plates over ˜72 hrs. The compound starting concentrations were 198 μM. Cell viability assay using CellTiterGlo in 96-well plate were performed. Compound treatment 72 hrs, standard growth conditions, duplicates. Compounds were dissolved to 40 mM with thawed […]. Compounds were serially diluted at 3.16 fold in thawed DMSO, and warmed to 37° C. before being dissolved in media (2 μl+200 μl). After compounds were dissolved in media, media containing compounds were warmed to 37° C. in incubator and then compounds in media were added to cell plates (50 μl+50 μl) in duplicates. The compounds' final concentrations were from […] to 19.9 nM. All compound solubilities were checked and recorded again, then the plates were transferred to CO2 tissue culture incubator immediately and incubated for 3 days. DMSO final concentration is 0.5%.

Row | Compound | IC50 (FM3A) [µM] | IC50 (MCF7) [µM] | plasma concentration compared with the other compounds [1] | LD50 (KG1a cell line) [µM] | cytotoxic potency compared in words (KG1a cell line) | fold increase in human plasma concentration when adenosine deaminase was inhibited by EHNA ([1]; EHNA versus control) [fold] | MI% MDAMB231 (MDAMB231; CellTiterGlo, 72 hrs) [%] | IC50 (MDAMB231; MDA-MB-231, CellTiterGlo, 72 hrs) [µM] | IC50 (MDAMB231; MDA-MB-231, 72 h) [µM]
1 | Nc1ncnc2c1nc(Cl)n2[C@@H]1O[C@H](COP(=O)(NCC(=O)OC2CCCCC2)Oc2ccccc2)[C@@H](O)[C@H]1O (mixture of isomers) [Compound A, Cyclohexyl 2-(((((2R,3S,4R,5R)-5-(6-amino-8-chloro-9H-purin-9-yl)-3,4-dihydroxy-tetrahydrofuran-2-yl)methoxy)(phenoxy)phosphoryl)amino)acetate] | > 100 | 15 to 100 |  |  |  |  |  |  | 
2 | C[C@H](NP(=O)(OC[C@H]1O[C@@H](n2c(Cl)nc3c(N)ncnc32)C(O)C1O)Oc1cccc2ccccc12)C(=O)OCc1ccccc1 (stereo partly drawn) [Compound D, (2S)-Benzyl 2-(((((2R,3S,4R,5R)-5-(6-amino-8-chloro-9H-purin-9-yl)-3,4-dihydroxy-tetrahydrofuran-2-yl)methoxynaphthalene-1-yloxy)phosphoryl)amino)propanoate] |  |  | highest plasma concentration | 3.8 | significantly (P<0.0001) more cytotoxic |  |  |  | 
3 | Nc1ncnc2c1nc(Cl)n2[C@@H]1O[C@H](CO)[C@@H](O)[C@H]1O [8-chloroadenosine, 8-Chloroadenosine, reference compound] | 0.1 to 5 | 0.1 to 5 |  |  |  | ~3 | 74 | 0.1 to 5 | 
4 | Nc1ncnc2c1nc(Cl)n2[C@@H]1O[C@H](COP(=O)(NCC(=O)OCc2ccccc2)NCC(=O)OCc2ccccc2)C(O)C1O (some centres unmarked) [Compound AC, 8-Chloroadenosine 5′-O-bis(benzyloxy-glycin-N-yl) phosphate] |  |  |  |  | not as cytotoxic as Isomer A of Compound B |  |  |  | 
5 | CCCCCOC(=O)[C@H](C)NP(=O)(OC[C@H]1O[C@@H](n2c(Cl)nc3c(N)ncnc32)C(O)C1O)Oc1cccc2ccccc12 (stereo partly drawn) [Compound E, (2S)-Pentyl 2-(((((2R,3S,4R,5R)-5-(6-amino-8-chloro-9H-purin-9-yl)-3,4-dihydroxy-tetrahydrofuran-2-yl)methoxnaphthalene-1-yloxy)phosphoryl)amino)propanoate] |  |  |  | 20 | less potent than 8-chloroadenosine |  |  |  | 
6 | CC(C)C[C@H](NP(=O)(OC[C@H]1O[C@@H](n2c(Cl)nc3c(N)ncnc32)C(O)C1O)Oc1ccccc1)C(=O)OCc1ccccc1 (stereo partly drawn) [V, 5′-([(Benzyloxy-L-leucin-N-yl)-phenyl]-phosphatyl) 8-chloroadenosine] | 15 to 100 | 0.1 to 5 |  |  |  |  | 99 |  | 15 to 100
7 | C[C@H](NP(=O)(OC[C@H]1O[C@@H](n2c(Cl)nc3c(N)ncnc32)[C@H](O)[C@@H]1O)Oc1ccccc1)C(=O)OCc1ccccc1 (mixture of isomers) [C, (2S)-Benzyl 2-(((((2R,3S,4R,5R)-5-(6-amino-8-chloro-9H-purin-9-yl)-3,4-dihydroxy-tetrahydrofuran-2-yl)methoxy)(phenoxy)phosphoryl)amino)propanoate] | 15 to 100 | 15 to 100 |  | 1.6 |  |  |  |  | 
8 | Nc1ncnc2c1nc(Cl)n2[C@@H]1O[C@H](COP(=O)(NCC(=O)OCc2ccccc2)Oc2ccccc2)[C@@H](O)[C@H]1O (mixture of isomers) [Compound B, Benzyl 2-(((((2R,3S,4R,5R)-5-(6-amino-8-chloro-9H-purin-9-yl)-3,4-dihydroxytetra-hydrofuran-2-yl)methoxy)(phenoxy)phosphoryl)amino)acetate] | 0.1 to 5 | 15 to 100 | low plasma concentration | 7.1 |  |  | 76 |  | 5 to 15
